Laboratory results taken from patent publication US5045566A, “Novel imidate insecticides” (ICI Americas Inc., priority 1989, dated 1991).

Key:
Format in all cases: in vivo
[1] = test system: Housefly [Musca domestica]; experiment: Housefly contact mortality in dishes (HF), 48 hours; details: μg of test compound per 25 female flies
Outline: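 Dry-film exposure of 25 female houseflies per cage, 48 h; LC50 as μg per 25 flies.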

[2] = test system: Tobacco Budworm [Heliothis virescens (Fabricius)] larvae; experiment: Tobacco budworm larvae, contact (TBW-C), 5 days; details: percent in solution, second-instar larvae
Outline: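 Cotton cotyledons dipped 2–3 s in compound in 50-50 acetone-water, dried, then infested with 5 second-instar larvae and held 5 days at high humidity. Mortality scored; LC50 from dosage-mortality curves, expressed as percent compound in solution, concentrations from 0.1% downward.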

[3] = test system: Rice water weevil [Lissorhoptrus oryzophilus (Kuschel)]; experiment: Rice water weevil topical (RWW), 48 hours; details: μg of test compound per weevil, female adults
Procedure: The compounds in Tables 1 and 2 above were tested for insecticidal activity using the following testing procedures. LC50 values, based on the results of these tests and calculated according to dosage-mortality curves, are expressed in Table 3.
Rice water weevil [Lissorhoptrus oryzophilus (Kuschel)]:
Test compounds were diluted in acetone. Droplets (1 ul) of test solutions were applied to the ventral abdomens of ten female adult weevils. The treated weevils were placed in containers with wet cotton balls and rice foliage. The containers were covered and kept at a temperature of about 25° C. Mortality was recorded after 48 hours. Test concentrations ranged from […] down to that at which 50% mortality occurred. The LC50 values are expressed below in Table 3 under the heading "RWW" in terms of μg of test compound per weevil.

[4] = test system: Black Bean Aphid [Aphis fabae (Scop.)]; experiment: Black bean aphid spray test on nasturtium (BBA), 48 hours; details: percent of test compound in sprayed solution
Outline: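 LC50, given as percent test compound in the sprayed liquid, was calculated from dosage-mortality curves using concentrations from 0.05% downward. Sprays in 50:50 acetone-water went to runoff on ~5 cm nasturtiums carrying 25-50 aphids of mixed ages, one day after infestation. Deaths were counted 48 h later under greenhouse conditions.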

[5] = test system: Cabbage Looper [Trichoplusia ni (Hubner)]; experiment: Cabbage looper leaf dip (CL), 3-5 days; details: percent in solution, second-instar larvae
Outline: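 Steps: dilute compound in 50-50 acetone-water from 0.1% downward; immerse cotyledon pieces 2-3 s and dry; place in humid petri dishes with five second-instar larvae; record mortality at 3-5 days. Dosage-mortality curves yield LC50 as percent in solution.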

[6] = test system: Tobacco Budworm [Heliothis virescens (Fabricius)] eggs; experiment: Tobacco budworm eggs (TBW-E); details: percent in solution; 2-day old eggs
Outline: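 Mortality of dipped eggs served as read-out, recorded after untreated controls hatched and began feeding. Treatments used acetone solutions from 0.1% downward, with eggs incubated at 78° F; LC50 is expressed as percent of compound in the solution.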

[7] = test system: Aster Leafhopper [Macrosteles fascifrens (Stal)]; experiment: Aster leafhopper on dipped oat seedlings (LH), 48 hours; details: percent in solution, adults/nymphs
Outline: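 LC50 values, given as percent of test compound in the dip solution, were derived from dosage-mortality curves over concentrations from 0.05% downward. Mortality was counted 48 hours after ten leafhopper adults/nymphs were enclosed on treated seedlings. The seedlings were oats, about 10 cm tall, briefly dipped in 50-50 acetone-water.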

[8] = test system: Maize weevil [Sitophilus zeamais (Motschulsky)]; experiment: Maize weevil on dipped corn seeds (MW), 48 hours; details: percent in solution, adult weevils
Outline: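 LC50, given as percent of compound in dipping solution, comes from dosage-mortality curves over concentrations descending from 0.01%. Four corn seeds soaked 2-3 s in 50:50 acetone:water solution were dried and held with 10 adult weevils, about 25° C, mortality read after 48 h.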

| SMILES | LC50 HF [1] [µg] | LC50 TBW C (contact) [2] [%] | LC50 RWW [3] [µg] | LC50 BBA [4] [%] | LC50 CL [5] [%] | LC50 TBW E (eggs) [6] [%] | LC50 LH [7] [%] | LC50 MW [8] [%] |
| --- | --- | --- | --- | --- | --- | --- | --- | --- |
| CC(C)C(=Nc1ccc(Cl)c(Cl)c1)OCc1ccc(F)c(Oc2ccc(Cl)cc2)c1 [Compound 296] | 38 | 0.00045 | 0.14 | 0.0003 | 0.00025 | 0.025 | 0.0003 | – |
| CC(C)C(=Nc1ccc(F)c(Cl)c1)OCc1cccc(Oc2cccc(F)c2)c1 [Compound 125] | 12 | – | > 2.5 | 0.05 | 0.0007 | 0.025 | > 0.05 | > 0.01 |
| CCC(=Nc1ccc(F)c(Cl)c1)OCc1cccc(Oc2ccccc2)c1 [Compound 85] | 7 | – | > 2.5 | 0.0017 | 0.004 | > 0.1 | 0.003 | > 0.01 |
| CC(C)C(=Nc1ccc(F)c(F)c1)OCc1ccc(F)c(Oc2ccc(Cl)cc2)c1 [Compound 295] | 7.8 | 0.0005 | > 2.5 | 0.0003 | 0.00004 | 0.01 | 0.0001 | 0.0053 |
| CC(C)C(=Nc1ccc(C(F)(F)F)c(Br)c1)OCc1ccc(F)c(Oc2ccc(Cl)cc2)c1 [Compound 377] | < 100 | – | > 2.5 | 0.001 | 0.00062 | > 0.1 | – | > 0.01 |
| CC(C)C(=Nc1ccc(F)c(C(F)(F)F)c1)OCc1ccc(F)c(Oc2ccccc2)c1 [Compound 300] | 14 | 0.001 | 0.075 | 0.0003 | 0.0003 | 0.024 | 0.00002 | 0.01 |
| CC(C)C(=Nc1ccc(Cl)c(Cl)c1)OCc1ccc(F)c(Oc2ccccc2)c1 [Compound 376] | 17 | – | 0.1 | 0.0003 | 0.00037 | 0.02 | – | 0.0061 |
| CC(C)C(=Nc1ccc(F)c(Cl)c1F)OCc1ccc(F)c(Oc2ccc(F)cc2)c1 [Compound 330] | 5 | 0.00035 | 0.06 | 0.0001 | 0.00012 | 0.037 | < 0.05 | 0.001 |
| CC(C)C(=Nc1cccc(Br)c1)OCc1ccc(F)c(Oc2ccccc2)c1 [Compound 387] | < 100 | – | > 2.5 | 0.0006 | 0.0012 | 0.05 | – | > 0.01 |
| CC(C)C(=Nc1ccc(Br)c(Cl)c1)OCc1ccc(F)c(Oc2ccc(F)cc2)c1 [Compound 382] | < 100 | – | > 2.5 | 0.0003 | 0.00029 | 0.027 | – | > 0.01 |
| CC(C)C(=Nc1ccc(Cl)c(Cl)c1)OCc1ccc(F)c(Oc2ccc(F)cc2)c1 [Compound 289] | 10 | – | 0.082 | 0.0003 | 0.00007 | 0.006 | 0.0003 | > 0.01 |
| CC(C)C(=Nc1ccc(F)c(Cl)c1)OCc1cc(Oc2ccc(F)cc2)ccc1F [Compound 230] | 36 | – | > 2.5 | 0.01 | 0.0004 | 0.1 | – | 0.038 |
| CC(C)C(=Nc1ccc(F)c(Cl)c1)OCc1cccc(Oc2ccc(F)cc2)c1F [Compound 262] | 26 | – | > 2.5 | 0.03 | 0.0004 | > 0.1 | – | 0.005 |
| CC(C)C(=Nc1ccc(F)c(Cl)c1)OCc1cccc(Oc2ccc(F)cc2F)c1 [Compound 191] | 29 | – | > 2.5 | 0.001 | 0.00023 | 0.04 | > 0.05 | 0.004 |
| CC(C)C(=Nc1ccc(F)c(Cl)c1F)OCc1ccc(F)c(Oc2ccccc2)c1 [Compound 451] | 3.6 | 0.00025 | 0.065 | 0.001 | 0.0001 | > 0.1 | 0.0002 | 0.0051 |
| CC(C)C(=Nc1ccc(Br)c(Cl)c1)OCc1cccc(Oc2ccc(Cl)cc2)c1 [Compound 380] | > 100 | – | > 2.5 | 0.004 | > 0.1 | > 0.1 | – | > 0.01 |
| CC(C)C(=Nc1c(F)c(F)c(F)c(F)c1F)OCc1cccc(Oc2ccc(F)cc2)c1 [Compound 198] | 52 | – | > 2.5 | – | 0.0005 | > 0.1 | 0.05 | 0.003 |
| CC(C)C(=Nc1ccc(Cl)c(OCC(F)(F)F)c1)OCc1ccc(F)c(Oc2ccc(Cl)cc2)c1 [Compound 452] | > 100 | – | 0.1 | 0.0003 | 0.0017 | < 0.1 | – | > 0.01 |
| CC(C)C(=Nc1ccc(F)c(Br)c1)OCc1ccc(F)c(Oc2ccc(Cl)cc2)c1 [Compound 298] | 13 | 0.0008 | > 2.5 | – | 0.0001 | 0.015 | 0.0001 | 0.008 |
| CC(C)C(=Nc1ccc(C(F)(F)F)cc1)OCc1cccc(Oc2ccccc2)c1 [Compound 68] | 37 | – | 0.15 | 0.0003 | 0.006 | 0.009 | 0.0001 | > 0.01 |
| CCOc1ccc(N=C(OCc2ccc(F)c(Oc3ccc(Cl)cc3)c2)C(C)C)cc1Cl [Compound 369] | > 100 | – | > 2.5 | 0.0003 | 0.0016 | > 0.1 | – | > 0.01 |
| CC(C)C(=Nc1ccc(Br)c(Cl)c1)OCc1ccc(F)c(Oc2ccc(Cl)cc2)c1 [Compound 381] | < 100 | – | > 2.5 | 0.002 | 0.00092 | 0.018 | – | > 0.01 |
| CC(C)C(=Nc1ccc(OC(F)(F)F)cc1)OCc1ccc(F)c(Oc2ccccc2)c1 [Compound 338] | 26 | 0.00037 | 0.044 | 0.0003 | 0.000065 | 0.01 | – | 0.0053 |
| CC(C)C(=Nc1ccc(Br)cc1)OCc1ccc(F)c(Oc2ccc(Cl)cc2)c1 [Compound 378] | < 100 | – | > 2.5 | 0.0008 | 0.00034 | 0.02 | – | > 0.01 |
| C=C(C)C(=Nc1ccc(C(F)(F)F)cc1)OCc1ccc(F)c(Oc2ccccc2)c1 [Compound 431] | 9.8 | – | 0.084 | 0.0003 | 0.00017 | 0.025 | – | 0.0037 |
